# Measurements as given in ChEMBL document CHEMBL1201862, “PubChem BioAssay data set” (2004).
#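 Dose response: 5 concentrations. Exposure: 48 h. Format: 96-well plates. Endpoint: linear interpolation; highest concentration if not reached. At the GI50, growth is halved.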 The source made the active and inactive calls. Rule as the data show it: active = GI50 up to about 1.1 µM and inactive = higher.
# Legend:
# Assay in all cases: NCI anticancer screen, dose series, 48 h
# CAKI-1 = tested on: CAKI-1
# MOLT-4 = tested on: MOLT-4
# SK-OV-3 = tested on: SK-OV-3
# A498 = tested on: A498
# HT-29 = tested on: HT-29
# SN12C = tested on: SN12C
# TK-10 = tested on: TK-10
# NCI-H522 = tested on: NCI-H522
# SNB-75 = tested on: SNB-75
# IGROV-1 = tested on: IGROV-1
# NCI-H460 = tested on: NCI-H460
# SW-620 = tested on: SW-620
# OVCAR-3 = tested on: OVCAR-3
# LOX IMVI = tested on: LOX IMVI
# K562 = tested on: K562
# SK-MEL-5 = tested on: SK-MEL-5
# HCC 2998 = tested on: HCC 2998
# M14 = tested on: M14
# OVCAR-4 = tested on: OVCAR-4
# OVCAR-5 = tested on: OVCAR-5
SMILES,GI50 (CAKI-1),GI50 (MOLT-4),GI50 (SK-OV-3),GI50 (A498),GI50 (HT-29),GI50 (SN12C),GI50 (TK-10),GI50 (NCI-H522),GI50 (SNB-75),GI50 (IGROV-1),GI50 (NCI-H460),GI50 (SW-620),GI50 (OVCAR-3),GI50 (LOX IMVI),GI50 (K562),GI50 (SK-MEL-5),GI50 (HCC 2998),GI50 (M14),GI50 (OVCAR-4),GI50 (OVCAR-5)
CCCCCCCC(=O)OCC1OC(n2cc(F)c(=O)[nH]c2=O)C(NC(=O)OCc2ccccc2)C(OC(=O)CCCCCCC)C1O (configuration not stated),19.2 µM (inactive),9.93 µM (inactive),> 100 µM (inactive),> 100 µM (inactive),29.8 µM (inactive),14.1 µM (inactive),38 µM (inactive),16.7 µM (inactive),24.5 µM (inactive),> 100 µM (inactive),35.5 µM (inactive),35 µM (inactive),20.6 µM (inactive),15.1 µM (inactive),15.6 µM (inactive),0.309 µM (active),35.2 µM (inactive),25.4 µM (inactive),10.5 µM (inactive),–
CCOC(=O)C(NC(=O)N(C1=NCC(C)S1)C1CCCCC1)(OC)C(F)(F)F (configuration not stated),34.6 µM (inactive),37.8 µM (inactive),52.4 µM (inactive),16.4 µM (inactive),20.7 µM (inactive),15.1 µM (inactive),57.5 µM (inactive),27.7 µM (inactive),31 µM (inactive),–,35.4 µM (inactive),35.2 µM (inactive),24.3 µM (inactive),19.7 µM (inactive),56.9 µM (inactive),23.8 µM (inactive),43.9 µM (inactive),51.2 µM (inactive),40.3 µM (inactive),> 100 µM (inactive)
CS(=O)(=O)c1n[nH]c2nc(O)nc(O)c12,> 10 µM (inactive),> 10 µM (inactive),> 10 µM (inactive),> 10 µM (inactive),> 10 µM (inactive),> 10 µM (inactive),> 10 µM (inactive),> 10 µM (inactive),> 10 µM (inactive),> 10 µM (inactive),> 10 µM (inactive),> 10 µM (inactive),> 10 µM (inactive),> 10 µM (inactive),–,> 10 µM (inactive),> 10 µM (inactive),> 10 µM (inactive),> 10 µM (inactive),> 10 µM (inactive)
COC(=O)c1ccc(NC(=O)c2cc(OC)c(OC)c(OC)c2)cc1,2.16 µM (inactive),3.93 µM (inactive),11.3 µM (inactive),3.44 µM (inactive),1.35 µM (inactive),1.85 µM (inactive),2.34 µM (inactive),0.836 µM (active),42.1 µM (inactive),3.17 µM (inactive),2.23 µM (inactive),0.955 µM (active),1.08 µM (active),9.31 µM (inactive),1.97 µM (inactive),0.195 µM (active),1.99 µM (inactive),4.28 µM (inactive),18.9 µM (inactive),–
CCCCCCc1cc2cc(C(=O)Nc3nc(C45CC6CC(CC(C6)C4)C5)cs3)c(=O)oc2cc1O,8.81 µM (inactive),15.1 µM (inactive),20.3 µM (inactive),13.6 µM (inactive),13.3 µM (inactive),5.53 µM (inactive),11.3 µM (inactive),3.45 µM (inactive),7.62 µM (inactive),10.4 µM (inactive),5.16 µM (inactive),19 µM (inactive),13.1 µM (inactive),11.2 µM (inactive),2.31 µM (inactive),11.9 µM (inactive),8.15 µM (inactive),–,11.1 µM (inactive),16 µM (inactive)
Cc1ccc(N2Cc3c(ccc4ccccc34)OP2(=O)Oc2ccc(Cl)c(C)c2)cc1 (configuration not stated),> 100 µM (inactive),14.2 µM (inactive),> 100 µM (inactive),81.5 µM (inactive),> 95.1 µM (inactive),> 100 µM (inactive),–,39.9 µM (inactive),> 100 µM (inactive),> 100 µM (inactive),67.5 µM (inactive),> 81.8 µM (inactive),> 31.6 µM (inactive),> 100 µM (inactive),> 100 µM (inactive),> 100 µM (inactive),> 100 µM (inactive),–,> 100 µM (inactive),> 100 µM (inactive)
COc1ccc(C2C3C(=O)C=CC(=O)C3[C@@H]2C)cc1OC (some centres not stated),> 100 µM (inactive),36 µM (inactive),> 100 µM (inactive),> 100 µM (inactive),> 100 µM (inactive),–,> 100 µM (inactive),17.5 µM (inactive),22.1 µM (inactive),> 100 µM (inactive),> 100 µM (inactive),42.1 µM (inactive),> 100 µM (inactive),42.3 µM (inactive),62.7 µM (inactive),> 100 µM (inactive),> 100 µM (inactive),> 100 µM (inactive),> 100 µM (inactive),> 100 µM (inactive)
